Read-outs that look alike come from different tables or passages of the source. Some results are limits rather than exact numbers.

Results on 19 molecules are retold here after US8648099B2 (Hoffmann-La Roche Inc., priority 2011, dated 2014).

Assay [1] relates to ABCA1 protein. Nature of the assay: Detection of upregulation of ABCA1 protein in cells (ApoA-I binding, high content imaging). The note with it: THP-1 macrophage cells; for EC50: 24 hrs compound incubation, read-out: EC50 [μM] ABCA1 protein increasing efficacy; for % increase of ABCA1 at 3 μM: compound at 3 μM, 24 hrs. It counts as cell-based. Here is the method: The ability of compounds of the invention to increase the level of ABCA1 protein is determined in replicate cultures of THP-1 macrophage cells in 96-well microplates. Cells are plated at an initial density of 100,000 cells/well in 100 μl medium and differentiated to adherent macrophages with the addition of PMA (100 nM) for 68 hrs in 10% fetal bovine serum, 3 μl/L of b-mercaptoethanol, RPMI-1640 medium. Then, cells are incubated with RPMI-1640 medium containing 1% FCS, 25 μg/ml acetylated LDL, for 24 hours at 37° C. Following incubation with acetylated LDL, cells are washed twice with 50 μl PBS and incubated with 100 μl of RPMI-1640 medium containing the compound of interest solubilized in DMSO for an additional 24 hrs. The final DMSO concentration in presence of cells is maintained at 0.5%. ApoA-I binding assay using High Content Image Analysis is initiated by replacing with fresh medium, RPMI without Phenol Red, 0.2% BSA containing AlexaFluor®647 labeled ApoA-I for 2 h/37° C./5% CO2. Then, cells are fixed with 4% Formaldehyde in PBS (15 min, RT). Following Nuclei are stained with Hoechst solution (3 μM PBS) and Cytoplasm with Cell Mask Blue (2 μg/ml PBS), 15 min, RT. Finally the stained cells are fixed with a second round of formaldehyde treatment. Fixed stained cells are washed and kept in PBS at 4° C. and can be read immediately until one month after preparation.
The Alexa Fluor 647-labeled Apolipoprotein A-I (20 nM) was prepared as follows: Human recombinant Apolipoprotein A-I (ApoA-I) was exchanged to a buffer of 0.02 M NaHCO3 at pH 8.2 on an NAP desalting column (GE Healthcare) and brought to a concentration to 40 μM (1.13 mg/ml) by adjustment with the same buffer. The ApoA-I was fluorescently labeled by incubation with Alexa Fluor carboxylic acid succimidyl ester (Alexa Fluor 647, Invitrogen A-20006) at a 2:1 molar ratio (Alexa to ApoA-I) for 1 h under shaking at RT. The remaining unconjugated label was removed by buffer exchange to 0.02M NaHCO3 at pH 8.2.
Imaging and data collection were performed on an OPERA confocal microplate imaging reader using a 20× water immersion objective and UV360 or 405 laser to identify the cell nuclei and a 635 laser to identify the fluorescent ApoA-I. Eight fields of view are captured per well. Image capture and analysis was performed with the Acapella software. Background fluorescence detected in control wells without ApoA-I was subtracted.
Using XLfit3 program (ID Business Solutions Ltd. UK), the model 205 for Dose Response One Site is used to calculate the EC50 values. […] More particularly, the compounds of the present invention have EC50 values in a range of 0.1 μM to 3 μm.

For assay [2], the target named is T1, human CB1 receptor (Homo sapiens, UniProt P21554).
T1 construct: expressed in transfected cells; host or cells: human embryonic kidney (HEK) cells, Semliki Forest Virus system, membrane preparations
Briefly: CB1 receptor affinity ([3H]-CP-55,940 displacement, HEK cell membranes). It counts as binding. The following applies: read-out: CB1 receptor affinity [% inhibition @ 10 μM]. The protocol:
(§1) The affinity of the compounds of the invention for cannabinoid receptors was determined using membrane preparations of human embryonic kidney (HEK) cells in which the human CB1 receptor is transiently transfected using a Semliki Forest Virus system in conjunction with [3H]-CP-55,940 as radioligand. After incubation of freshly prepared cell membrane preparation with the [^3H]-ligand, with or without addition of compounds of the invention, separation of bound and free ligand was performed by filtration over glass fiber filters. Radioactivity on the filter was measured by scintillation counting.
(§2) The ability of the compounds to displace the radioligand [^3H]-CP-55,940 was measured at a concentration of 10 μM and values provided as [% inhibition @ 10 μM] both for the CB1 and CB2 receptor assay, The lower % inhibition is, the lower the likelihood of side effects based on CB1 or CB2 receptor inhibition is.

Assay [3] has as its target T2, human CB2 receptor (Homo sapiens, UniProt P34972).
T2 construct: expressed in transfected cells; host or cells: human embryonic kidney (HEK) cells, Semliki Forest Virus system, membrane preparations
Briefly: CB2 receptor affinity ([3H]-CP-55,940 displacement, HEK cell membranes). The note with it: displacement of [3H]-CP-55,940 at 10 μM. The assay is classed as binding. Here is the method:
as §1, with “cannabinoid CB2” for “cannabinoid”, “CB2” for “CB1”, “[^3H]-CP-55,940” for “[3H]-CP-55,940”
as §2
(Loss of bound radioactivity is the signal in a displacement assay; it reports binding, not function.)

The mark [4] stands for this setting: displacement of [3H]-CP-55,940 at 10 μM.

T2 sequence (P34972 whole entry): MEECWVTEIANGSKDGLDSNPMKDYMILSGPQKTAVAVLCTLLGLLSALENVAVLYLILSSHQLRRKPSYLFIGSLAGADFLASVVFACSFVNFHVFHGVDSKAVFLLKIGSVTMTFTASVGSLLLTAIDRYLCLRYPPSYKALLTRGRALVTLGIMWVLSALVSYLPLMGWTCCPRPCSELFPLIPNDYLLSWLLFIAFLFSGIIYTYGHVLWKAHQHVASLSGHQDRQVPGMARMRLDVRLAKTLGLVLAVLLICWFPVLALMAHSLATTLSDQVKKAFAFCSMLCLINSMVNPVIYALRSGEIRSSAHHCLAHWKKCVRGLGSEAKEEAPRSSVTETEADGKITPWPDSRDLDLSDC
T1 sequence (P21554 whole entry): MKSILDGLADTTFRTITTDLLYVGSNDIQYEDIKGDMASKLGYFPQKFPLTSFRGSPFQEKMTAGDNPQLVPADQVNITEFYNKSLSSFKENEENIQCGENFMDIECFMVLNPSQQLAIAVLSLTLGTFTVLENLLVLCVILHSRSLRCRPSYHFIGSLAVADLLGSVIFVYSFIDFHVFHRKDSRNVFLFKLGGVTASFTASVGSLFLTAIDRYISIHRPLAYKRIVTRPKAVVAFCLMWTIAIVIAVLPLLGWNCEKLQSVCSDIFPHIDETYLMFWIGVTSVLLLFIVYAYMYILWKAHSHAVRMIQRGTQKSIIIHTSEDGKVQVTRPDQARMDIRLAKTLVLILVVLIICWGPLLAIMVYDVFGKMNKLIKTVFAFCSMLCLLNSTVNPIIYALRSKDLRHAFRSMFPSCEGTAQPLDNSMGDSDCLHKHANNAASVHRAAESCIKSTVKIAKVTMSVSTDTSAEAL

Take `CN(NC(=O)c1cnc(OCC(F)(F)F)c(C2CCOCC2)c1)c1ccccc1` [Example 35, 5-(tetrahydro-pyran-4-yl)-6-(2,2,2-trifluoro-ethoxy)-nicotinic acid N′-methyl-N′-phenyl-hydrazide]: the EC50 (usually the concentration that produces a half-maximal response) in assay [1] stood at 2.35 µM. For the same molecule, the inhibition – broadly, the relative decrease from the control value, in per cent – at 10 µM in assay [2] (setting [4]) turned out to be 34%; in assay [3], 25%.

`O=C(NN1CCOCC1)c1cnc(OCC(F)(F)F)c(C2CCCC2)c1` [Example 14, 5-cyclopentyl-N-morpholino-6-(2,2,2-trifluoroethoxy)-3-pyridinecarboxamide]: the EC50 in assay [1] worked out at 1.08 µM. Besides, the inhibition at 10 µM in assay [2] (setting [4]) came out at 19%; in assay [3] it was 9%.

Consider `O=C(NN1CCC(O)CC1)c1cnc(OCC2CC2)c(-c2ccc(Cl)cc2)c1` [Example 10, 5-(4-chlorophenyl)-6-(cyclopropylmethoxy)-N-(4-hydroxypiperidin-1-yl)-3-pyridinecarboxamide], for which the EC50 in assay [1] amounted to 1.03 µM. Besides, the inhibition at 10 µM was found to be 34% in assay [2] (setting [4]) and 2% in assay [3].

For the molecule `CN(NC(=O)c1cnc(OCC(F)(F)F)c(-c2ccc(Cl)cc2)c1)c1ccccc1` [Example 5, 5-(4-chloro-phenyl)-6-(2,2,2-trifluoro-ethoxy)-3-pyridinecarboxylic acid N′-methyl-N′-phenyl-hydrazide], the “% increase of ABCA1 at 3 μM” value in assay [1] is reported as more than 45%@ 3 μM. The inhibition at 10 µM in assay [2] (setting [4]) came to 45%; in assay [3] it was 31%.

As to `O=C(NN1CCOCC1)c1cnc(OCC(F)(F)F)c(C2CC2)c1` [Example 32, 5-cyclopropyl-N-morpholin-4-yl-6-(2,2,2-trifluoro-ethoxy)-nicotinamide], in assay [1], the EC50 came to 1.77 µM. The results for the inhibition at 10 µM in assay [2] (setting [4]) and in assay [3] were 14% and -14%, respectively.

With `COC[C@@H]1CCCN1NC(=O)c1cnc(OCC(F)(F)F)c(C2CCCCC2)c1` [Example 23, 5-cyclohexyl-N—((S)-2-methoxymethyl-pyrrolidin-1-yl)-6-(2,2,2-trifluoro-ethoxy)-3-pyridinecarboxamide], in assay [1], the “% increase of ABCA1 at 3 μM” value is on record as more than 45%@ 3 μM. The inhibition at 10 µM in assay [2] (setting [4]) came to 39%; in assay [3] it was 17%.

For the molecule `CN(NC(=O)c1cnc(OCC(F)(F)F)c(C2CCCC2)c1)c1ccccc1` [Example 18, 5-cyclopentyl-N′-methyl-N′-phenyl-6-(2,2,2-trifluoroethoxy)-3-pyridinecarboxylic acid hydrazide], the “% increase of ABCA1 at 3 μM” value in assay [1] is more than 45%@ 3 μM. Also, the inhibition at 10 µM in assay [2] (setting [4]) is 41%; in assay [3], 18%.

Take `O=C(NN1CCC(CCO)CC1)c1cnc(OCC(F)(F)F)c(-c2ccc(Cl)cc2)c1` [Example 24, 5-(4-chlorophenyl)-N-(4-(2-hydroxyethyl)piperidin-1-yl)-6-(2,2,2-trifluoroethoxy)-3-pyridinecarboxamide]: the “% increase of ABCA1 at 3 μM” value in assay [1] is reported as more than 45%@ 3 μM. The results for the inhibition at 10 µM in assay [2] (setting [4]) and in assay [3] were 45% and -8%, respectively.

Consider `O=C(NN1CC(O)C1)c1cnc(OCC(F)(F)F)c(-c2ccc(Cl)cc2)c1` [Example 29, 5-(4-chlorophenyl)-N-(3-hydroxyazetidin-1-yl)-6-(2,2,2-trifluoroethoxy)-3-pyridinecarboxamide], for which the “% increase of ABCA1 at 3 μM” value in assay [1] is more than 45%@ 3 μM. In addition, the inhibition at 10 µM in assay [2] (setting [4]) is 44%; in assay [3] it was -10%.

Regarding `CN(NC(=O)c1cnc(OCC(F)(F)F)c(C2CCCCC2)c1)c1ccc(Cl)nn1` [Example 22, N′-(6-chloropyridazin-3-yl)-5-cyclohexyl-N′-methyl-6-(2,2,2-trifluoroethoxy)-3-pyridinecarboxylic acid hydrazide], in assay [1], the concentration giving a half-maximal response (EC50) was found to be 0.98 µM. In addition, the inhibition at 10 µM is 28% in assay [2] (setting [4]) and -9% in assay [3].

With `CN(NC(=O)c1cnc(OC2CCC2)c(-c2ccco2)c1)c1ccc(Cl)nn1` [Example 51, 6-cyclobutoxy-5-furan-2-yl-nicotinic acid N′-(6-chloro-pyridazin-3-yl)-N′-methyl-hydrazide], the EC50 in assay [1] came to 0.47 µM. Moreover, the inhibition at 10 µM in assay [2] was 30%; in assay [3], -4%.

With `C[C@@H]1CN(NC(=O)c2cnc(OCC(F)(F)F)c(C3CC3)c2)C[C@H](C)O1` [Example 44, 5-cyclopropyl-N-((2R,6S)-2,6-dimethyl-morpholin-4-yl)-6-(2,2,2-trifluoro-ethoxy)-nicotinamide], in assay [1], the “% increase of ABCA1 at 3 μM” value is on record as more than 45%@ 3 μM. Further, the inhibition at 10 µM in assay [2] (setting [4]) was determined as 14%; in assay [3] it was 5%.

Regarding `O=C(NN1CC(CN2CCOCC2)OC1=O)c1cnc(OCC(F)(F)F)c(-c2ccc(Cl)cc2)c1` (stereo not drawn) [Example 7, 5-(4-chlorophenyl)-N-(5-(morpholinomethyl)-2-oxooxazolidin-3-yl)-6-(2,2,2-trifluoroethoxy)-3-pyridinecarboxamide], in assay [1], the “% increase of ABCA1 at 3 μM” value is on record as more than 45%@ 3 μM. Also, the inhibition at 10 µM in assay [2] (setting [4]) is 36%; in assay [3], -4%.

For the molecule `CN(NC(=O)c1cnc(OCC(F)(F)F)c(C2CCCC2)c1)c1ccc(Cl)nn1` [Example 16, N′-(6-chloropyridazin-3-yl)-5-cyclopentyl-N′-methyl-6-(2,2,2-trifluoroethoxy)-3-pyridinecarboxylic acid hydrazide], the EC50 in assay [1] was determined as 1.17 µM. The inhibition at 10 µM in assay [2] (setting [4]) was 21%; in assay [3], -5%.

For `O=C(NN1CCC(O)CC1)c1cnc(OCC(F)(F)F)c(C2CCCCC2)c1` [Example 12, 5-cyclohexyl-N-(4-hydroxypiperidin-1-yl)-6-(2,2,2-trifluoroethoxy)-3-pyridinecarboxamide], in assay [1], the EC50 amounted to 1.48 µM. The inhibition at 10 µM in assay [2] (setting [4]) was determined as 8%; in assay [3] it was 6%.

Turning to `O=C(NN1CCS(=O)(=O)CC1)c1cnc(OCC(F)(F)F)c(C2CC2)c1` [Example 31, 5-cyclopropyl-N-(1,1-dioxo-1λ6-thiomorpholin-4-yl)-6-(2,2,2-trifluoro-ethoxy)-nicotinamide], the “% increase of ABCA1 at 3 μM” value in assay [1] is more than 45%@ 3 μM. For the same molecule, the inhibition at 10 µM in assay [2] (setting [4]) was -2%; in assay [3] it was -14%.

For `CN(NC(=O)c1cnc(OCC(F)(F)F)c(C2CC2)c1)c1ccncc1` [Example 49, 5-cyclopropyl-6-(2,2,2-trifluoro-ethoxy)-nicotinic acid N′-methyl-N′-pyridin-4-yl-hydrazide], the “% increase of ABCA1 at 3 μM” value in assay [1] is recorded as more than 45%@ 3 μM. In addition, the inhibition at 10 µM in assay [2] (setting [4]) stood at 13%; in assay [3], 3%.

Consider `O=C(NNc1ccc(F)cc1)c1cnc(OCC2CC2)c(C2CC2)c1` [Example 42], for which the EC50 in assay [1] turned out to be 3.2 µM. For the same molecule, the inhibition at 10 µM in assay [2] (setting [4]) is 11%; in assay [3], 9%.

For `O=C(NN1CCS(=O)(=O)CC1)c1cnc(OCC(F)(F)F)c(-c2ccc(Cl)cc2)c1` [Example 3, 5-(4-chloro-phenyl)-N-(1,1-dioxido-4-thiomorpholinyl)-6-(2,2,2-trifluoro-ethoxy)-3-pyridinecarboxamide], the “% increase of ABCA1 at 3 μM” value in assay [1] is listed as more than 45%@ 3 μM. In addition, the inhibition at 10 µM amounted to 39% in assay [2] (setting [4]) and 7% in assay [3].
